Laboratory results reported in article PMC9238736 (Journal of the American Heart Association: Cardiovascular …, 2022).

Key:
hKir2.1 = molecular target: T1, hKir2.1 (Homo sapiens, UniProt P63252); assay: whole-cell patch clamp, hyperpolarizing ramp, […] °C
T1 sequence (P63252 1-427): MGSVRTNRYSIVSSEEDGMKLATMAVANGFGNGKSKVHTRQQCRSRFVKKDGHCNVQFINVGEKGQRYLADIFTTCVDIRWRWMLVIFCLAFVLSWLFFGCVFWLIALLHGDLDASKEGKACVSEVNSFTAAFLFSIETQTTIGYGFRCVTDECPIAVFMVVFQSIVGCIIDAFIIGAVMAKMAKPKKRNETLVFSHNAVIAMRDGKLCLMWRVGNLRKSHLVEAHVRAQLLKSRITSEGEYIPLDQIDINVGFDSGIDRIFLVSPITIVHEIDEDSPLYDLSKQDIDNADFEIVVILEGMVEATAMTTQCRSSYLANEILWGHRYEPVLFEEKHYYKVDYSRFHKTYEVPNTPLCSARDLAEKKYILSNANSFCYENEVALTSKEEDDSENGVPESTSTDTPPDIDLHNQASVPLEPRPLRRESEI

[1] = molecular target: human ether‐à‐go‐go–related gene (hERG) channel (Homo sapiens, UniProt Q12809)
hKir2.2 = molecular target: T2, hKir2.2 (Homo sapiens, UniProt Q14500); assay: whole-cell patch clamp, hyperpolarizing ramp; assay type: cell-based
T2 sequence (Q14500 1-433): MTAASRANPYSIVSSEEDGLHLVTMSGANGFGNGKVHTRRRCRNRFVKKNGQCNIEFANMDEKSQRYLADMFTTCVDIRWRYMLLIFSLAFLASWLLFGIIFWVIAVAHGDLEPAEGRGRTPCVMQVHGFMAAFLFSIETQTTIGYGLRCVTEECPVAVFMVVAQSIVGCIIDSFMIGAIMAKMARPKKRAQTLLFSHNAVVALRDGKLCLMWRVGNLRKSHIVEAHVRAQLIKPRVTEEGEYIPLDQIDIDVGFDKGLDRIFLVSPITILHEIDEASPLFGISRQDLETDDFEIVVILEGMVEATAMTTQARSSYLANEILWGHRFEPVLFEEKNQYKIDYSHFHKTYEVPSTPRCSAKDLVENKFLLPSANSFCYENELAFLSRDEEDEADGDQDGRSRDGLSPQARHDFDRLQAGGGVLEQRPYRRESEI

human ether‐à‐go‐go–related gene (hERG) channel, sequence (Q12809 whole entry): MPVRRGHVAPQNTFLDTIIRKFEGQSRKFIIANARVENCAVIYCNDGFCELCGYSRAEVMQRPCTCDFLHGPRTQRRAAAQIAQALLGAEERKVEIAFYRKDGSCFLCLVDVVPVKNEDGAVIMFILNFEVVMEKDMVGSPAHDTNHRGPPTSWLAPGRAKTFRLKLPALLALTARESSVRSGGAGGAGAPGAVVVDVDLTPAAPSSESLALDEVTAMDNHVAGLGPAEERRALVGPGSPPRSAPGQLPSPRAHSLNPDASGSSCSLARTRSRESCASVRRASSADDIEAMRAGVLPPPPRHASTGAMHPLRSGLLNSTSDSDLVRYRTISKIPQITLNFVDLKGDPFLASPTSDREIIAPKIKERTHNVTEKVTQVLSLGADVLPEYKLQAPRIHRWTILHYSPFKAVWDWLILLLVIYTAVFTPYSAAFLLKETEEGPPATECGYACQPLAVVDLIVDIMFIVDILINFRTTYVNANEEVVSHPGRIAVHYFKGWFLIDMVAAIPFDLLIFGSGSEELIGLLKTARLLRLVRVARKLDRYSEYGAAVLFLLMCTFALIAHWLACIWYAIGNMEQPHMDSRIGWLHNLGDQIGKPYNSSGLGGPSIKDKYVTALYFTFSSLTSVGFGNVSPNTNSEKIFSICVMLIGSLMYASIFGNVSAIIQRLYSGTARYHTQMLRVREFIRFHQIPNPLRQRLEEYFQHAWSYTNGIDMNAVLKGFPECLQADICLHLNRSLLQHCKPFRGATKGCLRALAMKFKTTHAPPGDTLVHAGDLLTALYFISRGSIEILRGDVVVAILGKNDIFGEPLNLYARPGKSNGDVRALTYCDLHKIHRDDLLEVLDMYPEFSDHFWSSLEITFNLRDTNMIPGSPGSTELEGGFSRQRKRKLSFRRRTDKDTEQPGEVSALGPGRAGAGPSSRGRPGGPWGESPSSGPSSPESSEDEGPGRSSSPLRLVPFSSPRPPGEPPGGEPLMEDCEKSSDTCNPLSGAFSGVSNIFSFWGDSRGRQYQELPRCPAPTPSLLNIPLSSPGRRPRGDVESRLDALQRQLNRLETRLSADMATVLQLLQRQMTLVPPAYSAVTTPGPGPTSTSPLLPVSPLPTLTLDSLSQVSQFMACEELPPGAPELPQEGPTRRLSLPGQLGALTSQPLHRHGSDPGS

| Structure (SMILES) | IC50 (hKir2.1) | IC50 [1] | IC50 (hKir2.2) |
| --- | --- | --- | --- |
| CCC(=O)C(CC(C)N(C)C)(c1ccccc1)c1ccccc1 (racemic) [methadone] | 2.9 µM | 2.9 µM | – |
| CN(C)C(=O)C(CCN1CCC(O)(c2ccc(Cl)cc2)CC1)(c1ccccc1)c1ccccc1 [loperamide] | – | – | 1.2 µM |
